# Measured values: BindingDB's records for doi:10.1016/s0960-894x(99)00336-4 (Merck Research Laboratories, 1999)
# Test: Inhibitory activity against Calcineurin (CaN phosphatase)
row,SMILES,IC50 [nM]
1,"CC[C@@H]1/C=C(\C)C[C@H](C)C[C@H](OC)[C@H]2O[C@@](O)(C(=O)C(=O)N3CCCC[C@H]3C(=O)O[C@H](/C(C)=C/C3CC[C@@H](OC[C@@H](O)c4ccc(F)c(F)c4)[C@H](OC)C3)[C@H](C)[C@H](O)CC1=O)[C@H](C)C[C@@H]2OC (stereo partly specified) [12-(2-{4-[2-(3,4-Difluoro-phenyl)-2-hydroxy-ethoxy]-3-methoxy-cyclohexyl}-1-methyl-vinyl)-17-ethyl-1,14-dihydroxy-23,25-dimethoxy-13,19,21,27-tetramethyl-11,28-dioxa-4-aza-tricyclo[22.3.1.0*4,9*]octacos-18-ene-2,3,10,16-tetraone]",7.3
2,"CC[C@@H]1/C=C(\C)C[C@H](C)C[C@H](OC)[C@H]2O[C@@](O)(C(=O)C(=O)N3CCCC[C@H]3C(=O)O[C@H](/C(C)=C/C3CC[C@@H](OC[C@H](O)c4ccc(F)c(F)c4)[C@H](OC)C3)[C@H](C)[C@H](O)CC1=O)[C@H](C)C[C@@H]2OC (stereo partly specified) [12-(2-{4-[2-(3,4-Difluoro-phenyl)-2-hydroxy-ethoxy]-3-methoxy-cyclohexyl}-1-methyl-vinyl)-17-ethyl-1,14-dihydroxy-23,25-dimethoxy-13,19,21,27-tetramethyl-11,28-dioxa-4-aza-tricyclo[22.3.1.0*4,9*]octacos-18-ene-2,3,10,16-tetraone]",8.7
3,"CC[C@@H]1/C=C(\C)C[C@H](C)C[C@H](OC)[C@H]2O[C@@](O)(C(=O)C(=O)N3CCCC[C@H]3C(=O)O[C@H](/C(C)=C/C3CC[C@@H](OC[C@@H](O)c4cc(C)cc(C)c4)[C@H](OC)C3)[C@H](C)[C@H](O)CC1=O)[C@H](C)C[C@@H]2OC (stereo partly specified) [12-(2-{4-[2-(3,5-Dimethyl-phenyl)-2-hydroxy-ethoxy]-3-methoxy-cyclohexyl}-1-methyl-vinyl)-17-ethyl-1,14-dihydroxy-23,25-dimethoxy-13,19,21,27-tetramethyl-11,28-dioxa-4-aza-tricyclo[22.3.1.0*4,9*]octacos-18-ene-2,3,10,16-tetraone]",7.9
4,"CC[C@@H]1/C=C(\C)C[C@H](C)C[C@H](OC)[C@H]2O[C@@](O)(C(=O)C(=O)N3CCCC[C@H]3C(=O)O[C@H](/C(C)=C/C3CC[C@@H](OC[C@H](O)c4cc(C)cc(C)c4)[C@H](OC)C3)[C@H](C)[C@H](O)CC1=O)[C@H](C)C[C@@H]2OC (stereo partly specified) [12-(2-{4-[2-(3,5-Dimethyl-phenyl)-2-hydroxy-ethoxy]-3-methoxy-cyclohexyl}-1-methyl-vinyl)-17-ethyl-1,14-dihydroxy-23,25-dimethoxy-13,19,21,27-tetramethyl-11,28-dioxa-4-aza-tricyclo[22.3.1.0*4,9*]octacos-18-ene-2,3,10,16-tetraone]",8.7
5,"CC[C@@H]1/C=C(\C)C[C@H](C)C[C@H](OC)[C@H]2O[C@@](O)(C(=O)C(=O)N3CCCC[C@H]3C(=O)O[C@H](/C(C)=C/C3CC[C@@H](OC[C@@H](O)c4cc5ccccc5s4)[C@H](OC)C3)[C@H](C)[C@H](O)CC1=O)[C@H](C)C[C@@H]2OC (stereo partly specified) [12-{2-[4-(2-Benzo[b]thiophen-2-yl-2-hydroxy-ethoxy)-3-methoxy-cyclohexyl]-1-methyl-vinyl}-17-ethyl-1,14-dihydroxy-23,25-dimethoxy-13,19,21,27-tetramethyl-11,28-dioxa-4-aza-tricyclo[22.3.1.0*4,9*]octacos-18-ene-2,3,10,16-tetraone]",4
6,"CC[C@@H]1/C=C(\C)C[C@H](C)C[C@H](OC)[C@H]2O[C@@](O)(C(=O)C(=O)N3CCCC[C@H]3C(=O)O[C@H](/C(C)=C/C3CC[C@@H](OC[C@H](O)c4cc5ccccc5s4)[C@H](OC)C3)[C@H](C)[C@H](O)CC1=O)[C@H](C)C[C@@H]2OC (stereo partly specified) [12-{2-[4-(2-Benzo[b]thiophen-2-yl-2-hydroxy-ethoxy)-3-methoxy-cyclohexyl]-1-methyl-vinyl}-17-ethyl-1,14-dihydroxy-23,25-dimethoxy-13,19,21,27-tetramethyl-11,28-dioxa-4-aza-tricyclo[22.3.1.0*4,9*]octacos-18-ene-2,3,10,16-tetraone]",4.2
7,"CC[C@@H]1/C=C(\C)C[C@H](C)C[C@H](OC)[C@H]2O[C@@](O)(C(=O)C(=O)N3CCCC[C@H]3C(=O)O[C@H](/C(C)=C/C3CC[C@@H](OC[C@@H](O)c4cccc(C(F)(F)F)c4)[C@H](OC)C3)[C@H](C)[C@H](O)CC1=O)[C@H](C)C[C@@H]2OC (stereo partly specified) [17-Ethyl-1,14-dihydroxy-12-(2-{4-[2-hydroxy-2-(3-trifluoromethyl-phenyl)-ethoxy]-3-methoxy-cyclohexyl}-1-methyl-vinyl)-23,25-dimethoxy-13,19,21,27-tetramethyl-11,28-dioxa-4-aza-tricyclo[22.3.1.0*4,9*]octacos-18-ene-2,3,10,16-tetraone]",4.9
8,"CC[C@@H]1/C=C(\C)C[C@H](C)C[C@H](OC)[C@H]2O[C@@](O)(C(=O)C(=O)N3CCCC[C@H]3C(=O)O[C@H](/C(C)=C/C3CC[C@@H](OC[C@H](O)c4cccc(C(F)(F)F)c4)[C@H](OC)C3)[C@H](C)[C@H](O)CC1=O)[C@H](C)C[C@@H]2OC (stereo partly specified) [17-Ethyl-1,14-dihydroxy-12-(2-{4-[2-hydroxy-2-(3-trifluoromethyl-phenyl)-ethoxy]-3-methoxy-cyclohexyl}-1-methyl-vinyl)-23,25-dimethoxy-13,19,21,27-tetramethyl-11,28-dioxa-4-aza-tricyclo[22.3.1.0*4,9*]octacos-18-ene-2,3,10,16-tetraone]",5.9
9,"CC[C@@H]1/C=C(\C)C[C@H](C)C[C@H](OC)[C@H]2O[C@@](O)(C(=O)C(=O)N3CCCC[C@H]3C(=O)O[C@H](/C(C)=C/C3CC[C@@H](OC[C@@H](O)c4ccc5ccccc5c4)[C@H](OC)C3)[C@H](C)[C@H](O)CC1=O)[C@H](C)C[C@@H]2OC (stereo partly specified) [17-Ethyl-1,14-dihydroxy-12-{2-[4-(2-hydroxy-2-naphthalen-2-yl-ethoxy)-3-methoxy-cyclohexyl]-1-methyl-vinyl}-23,25-dimethoxy-13,19,21,27-tetramethyl-11,28-dioxa-4-aza-tricyclo[22.3.1.0*4,9*]octacos-18-ene-2,3,10,16-tetraone]",2.8
10,"CC[C@@H]1/C=C(\C)C[C@H](C)C[C@H](OC)[C@H]2O[C@@](O)(C(=O)C(=O)N3CCCC[C@H]3C(=O)O[C@H](/C(C)=C/C3CC[C@@H](OC[C@H](O)c4ccc5ccccc5c4)[C@H](OC)C3)[C@H](C)[C@H](O)CC1=O)[C@H](C)C[C@@H]2OC (stereo partly specified) [17-Ethyl-1,14-dihydroxy-12-{2-[4-(2-hydroxy-2-naphthalen-2-yl-ethoxy)-3-methoxy-cyclohexyl]-1-methyl-vinyl}-23,25-dimethoxy-13,19,21,27-tetramethyl-11,28-dioxa-4-aza-tricyclo[22.3.1.0*4,9*]octacos-18-ene-2,3,10,16-tetraone]",7.3
11,"C=CC[C@@H]1/C=C(\C)C[C@H](C)C[C@H](OC)[C@H]2O[C@@](O)(C(=O)C(=O)N3CCCC[C@H]3C(=O)O[C@H](/C(C)=C/[C@@H]3CC[C@@H](O)[C@H](OC)C3)[C@H](C)[C@@H](O)CC1=O)[C@H](C)C[C@@H]2OC [(E)-(1R,9S,12S,13R,14R,21S,23S,24R,25S,27R)-17-Allyl-1,14-dihydroxy-12-[(E)-2-((3R,4R)-4-hydroxy-3-methoxy-cyclohexyl)-1-methyl-vinyl]-23,25-dimethoxy-13,19,21,27-tetramethyl-11,28-dioxa-4-aza-tricyclo[22.3.1.0*4,9*]octacos-18-ene-2,3,10,16-tetraone]",15
